Laboratory results reported in ChEMBL document CHEMBL1201862, “PubChem BioAssay data set” (2004).
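Interpolation was linear, between the two tested concentrations surrounding the appropriate level; five concentrations were tested over 48 hours in 96-well plates. GI50 is the concentration that inhibits growth by half.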 Activity calls are given as the source filed them. Rule as the data show it: active = GI50 up to about 1.1 µM and inactive = higher.

How the values were obtained:
Test in all cases: growth of human tumour cells (NCI), 48 h
[1] = tested on: HCT-116
[2] = tested on: SR
[3] = tested on: TK-10
[4] = tested on: KM-20L2
[5] = tested on: COLO 205
[6] = tested on: SNB-19
[7] = tested on: M19-MEL
[8] = tested on: SW-620
[9] = tested on: NCI-H522
[10] = tested on: SNB-78
[11] = tested on: NCI-H460
[12] = tested on: RXF 393
[13] = tested on: NCI-H23
[14] = tested on: UACC-62
[15] = tested on: K562
[16] = tested on: SF-268
[17] = tested on: SNB-75
[18] = tested on: IGROV-1
[19] = tested on: OVCAR-8
[20] = tested on: MOLT-4
[21] = tested on: U-251
[22] = tested on: SN12C
[23] = tested on: EKVX
[24] = tested on: CAKI-1
[25] = tested on: SF-295
[26] = tested on: SK-MEL-28
[27] = tested on: CCRF-CEM
[28] = tested on: LOX IMVI
[29] = tested on: Malme-3M
[30] = tested on: M14
[31] = tested on: DMS-273
[32] = tested on: DLD-1
[33] = tested on: OVCAR-4
[34] = tested on: DMS-114
[35] = tested on: 786-0
[36] = tested on: KM12
[37] = tested on: HT-29
[38] = tested on: XF498
[39] = tested on: SF-539
[40] = tested on: NCI-H226
[41] = tested on: SK-OV-3
[42] = tested on: SK-MEL-5
[43] = tested on: HOP-92
[44] = tested on: OVCAR-5
[45] = tested on: A549
[46] = tested on: ACHN
[47] = tested on: SK-MEL-2
[48] = tested on: UO-31
[49] = tested on: OVCAR-3
[50] = tested on: LXFL 529
[51] = tested on: HL-60
[52] = tested on: HCC 2998
[53] = tested on: HOP-62
[54] = tested on: RPMI-8226
[55] = tested on: HOP-18
[56] = tested on: HCT-15
[57] = tested on: UACC-257

CC12Oc3ccc4ccccc4c3C1c1c(ccc3ccccc13)O2 (configuration not stated)
GI50 [1]: > 100 µM (inactive) | GI50 [2]: > 100 µM (inactive) | GI50 [3]: > 100 µM (inactive) | GI50 [4]: > 100 µM (inactive) | GI50 [5]: > 100 µM (inactive) | GI50 [6]: > 100 µM (inactive) | GI50 [7]: > 100 µM (inactive) | GI50 [8]: > 100 µM (inactive) | GI50 [9]: > 100 µM (inactive) | GI50 [10]: > 100 µM (inactive) | GI50 [11]: > 100 µM (inactive) | GI50 [12]: > 100 µM (inactive) | GI50 [13]: > 100 µM (inactive) | GI50 [14]: > 100 µM (inactive) | GI50 [15]: > 100 µM (inactive) | GI50 [16]: > 100 µM (inactive) | GI50 [17]: 43.3 µM (inactive) | GI50 [18]: > 100 µM (inactive) | GI50 [19]: > 100 µM (inactive) | GI50 [20]: > 100 µM (inactive) | GI50 [21]: > 100 µM (inactive) | GI50 [22]: > 100 µM (inactive) | GI50 [23]: > 100 µM (inactive) | GI50 [24]: > 100 µM (inactive) | GI50 [25]: 58.6 µM (inactive) | GI50 [26]: > 100 µM (inactive) | GI50 [27]: > 100 µM (inactive) | GI50 [28]: > 100 µM (inactive) | GI50 [29]: > 100 µM (inactive) | GI50 [30]: > 100 µM (inactive) | GI50 [31]: > 100 µM (inactive) | GI50 [32]: > 100 µM (inactive) | GI50 [33]: 35.9 µM (inactive) | GI50 [34]: > 100 µM (inactive) | GI50 [35]: > 100 µM (inactive) | GI50 [36]: > 100 µM (inactive) | GI50 [37]: > 100 µM (inactive) | GI50 [38]: > 100 µM (inactive) | GI50 [39]: 78.2 µM (inactive) | GI50 [40]: > 100 µM (inactive) | GI50 [41]: > 100 µM (inactive) | GI50 [42]: > 100 µM (inactive) | GI50 [43]: 17.1 µM (inactive) | GI50 [44]: > 100 µM (inactive) | GI50 [45]: > 100 µM (inactive) | GI50 [46]: > 100 µM (inactive) | GI50 [47]: > 100 µM (inactive) | GI50 [48]: > 100 µM (inactive) | GI50 [49]: > 100 µM (inactive) | GI50 [50]: > 100 µM (inactive)

OC1c2ccccc2C2(O)C1C(c1ccccc1)C(c1ccccc1)C2(O)c1ccccc1 (configuration not stated)
GI50 [51]: 8.87 µM (inactive) | GI50 [52]: 11.2 µM (inactive) | GI50 [3]: 23.2 µM (inactive) | GI50 [4]: 8.83 µM (inactive) | GI50 [5]: 14 µM (inactive) | GI50 [6]: 23.5 µM (inactive) | GI50 [7]: 15.1 µM (inactive) | GI50 [8]: 15.8 µM (inactive) | GI50 [9]: 6.34 µM (inactive) | GI50 [11]: 4.56 µM (inactive) | GI50 [12]: 16 µM (inactive) | GI50 [13]: 13.3 µM (inactive) | GI50 [14]: 10.4 µM (inactive) | GI50 [53]: 13.2 µM (inactive) | GI50 [15]: 5.71 µM (inactive) | GI50 [54]: 4.65 µM (inactive) | GI50 [16]: 6.79 µM (inactive) | GI50 [17]: 12.1 µM (inactive) | GI50 [18]: 18.2 µM (inactive) | GI50 [19]: 12.6 µM (inactive) | GI50 [20]: 3.98 µM (inactive) | GI50 [21]: 8.17 µM (inactive) | GI50 [22]: 11.4 µM (inactive) | GI50 [23]: 15.4 µM (inactive) | GI50 [24]: 15.5 µM (inactive) | GI50 [25]: 6.52 µM (inactive) | GI50 [26]: 11.9 µM (inactive) | GI50 [27]: 8.18 µM (inactive) | GI50 [28]: 5.4 µM (inactive) | GI50 [29]: 12.7 µM (inactive) | GI50 [30]: 13.7 µM (inactive) | GI50 [31]: 7.48 µM (inactive) | GI50 [33]: 19.5 µM (inactive) | GI50 [34]: 13.6 µM (inactive) | GI50 [35]: 11.5 µM (inactive) | GI50 [36]: 10.6 µM (inactive) | GI50 [37]: 9.86 µM (inactive) | GI50 [39]: 12.6 µM (inactive) | GI50 [55]: 14.9 µM (inactive) | GI50 [56]: 3.06 µM | GI50 [41]: 22.2 µM (inactive) | GI50 [57]: 14.3 µM (inactive) | GI50 [42]: 7.13 µM (inactive) | GI50 [43]: 7.33 µM (inactive) | GI50 [44]: 10.7 µM (inactive) | GI50 [45]: 11.4 µM (inactive) | GI50 [46]: 5.82 µM (inactive) | GI50 [47]: 10.3 µM (inactive) | GI50 [48]: 13.4 µM (inactive) | GI50 [49]: 4.88 µM (inactive) | GI50 [50]: 9.82 µM (inactive)

Cc1nc(O)nc2c1C(NCCCN(C)C)c1cc(Cl)ccc1N2 (configuration not stated)
GI50 [1]: 15 µM (inactive) | GI50 [2]: 4.81 µM (inactive) | GI50 [51]: 14 µM (inactive) | GI50 [52]: 16.3 µM (inactive) | GI50 [3]: 16.8 µM (inactive) | GI50 [4]: 12 µM (inactive) | GI50 [5]: 13.2 µM (inactive) | GI50 [6]: 16.4 µM (inactive) | GI50 [7]: 3.91 µM (inactive) | GI50 [8]: 15.2 µM (inactive) | GI50 [9]: 15.2 µM (inactive) | GI50 [10]: 15.3 µM (inactive) | GI50 [11]: 14.7 µM (inactive) | GI50 [12]: 13.6 µM (inactive) | GI50 [13]: 17.5 µM (inactive) | GI50 [14]: 13.4 µM (inactive) | GI50 [53]: 14.6 µM (inactive) | GI50 [15]: 8.61 µM (inactive) | GI50 [54]: 17.3 µM (inactive) | GI50 [16]: 16.2 µM (inactive) | GI50 [17]: 12.8 µM (inactive) | GI50 [18]: 16.2 µM (inactive) | GI50 [19]: 15.3 µM (inactive) | GI50 [20]: 19.8 µM (inactive) | GI50 [21]: 15.9 µM (inactive) | GI50 [22]: 14.8 µM (inactive) | GI50 [23]: 16.3 µM (inactive) | GI50 [25]: 16.6 µM (inactive) | GI50 [26]: 14 µM (inactive) | GI50 [27]: 15.1 µM (inactive) | GI50 [28]: 11.9 µM (inactive) | GI50 [29]: 16.7 µM (inactive) | GI50 [30]: 9.59 µM (inactive) | GI50 [31]: 12.7 µM (inactive) | GI50 [32]: 17.8 µM (inactive) | GI50 [34]: 14.7 µM (inactive) | GI50 [35]: 14.6 µM (inactive) | GI50 [36]: 16 µM (inactive) | GI50 [37]: 10.4 µM (inactive) | GI50 [38]: 16.6 µM (inactive) | GI50 [39]: 13.5 µM (inactive) | GI50 [40]: 16.6 µM (inactive) | GI50 [41]: 16.9 µM (inactive) | GI50 [57]: 13.2 µM (inactive) | GI50 [43]: 10.9 µM (inactive) | GI50 [45]: 13.9 µM (inactive) | GI50 [46]: 16.6 µM (inactive) | GI50 [47]: 17.4 µM (inactive) | GI50 [48]: 13.6 µM (inactive) | GI50 [49]: 17.4 µM (inactive) | GI50 [50]: 16.9 µM (inactive)
